The subject of test [1] is Staphylococcus aureus. Kind of test: Antibacterial activity against Staphylococcus aureus CGMCC1.8721 in presence of phosphatidylglycerol. Type of test: functional, organism-based.
For test [2], the system named is Staphylococcus aureus. The experiment in a line: Induction of resistance development in Staphylococcus aureus CGMCC1.8721 assessed as fold increase in MIC at sub-lethal concentration following serial passages for 30 days relative to control. Type of test: functional. The settings on record: time 30 day.
For test [3], the system named is Staphylococcus aureus. The experiment in a line: Antibacterial activity against Staphylococcus aureus CGMCC1.8721. Type of test: functional.
For test [4], the system named is Staphylococcus aureus. Kind of test: Antibacterial activity against methicillin-resistant Staphylococcus aureus ATCC 43300. Type of test: functional.
Test [5] relates to Staphylococcus aureus. Kind of test: Antibacterial activity against methicillin-resistant Staphylococcus aureus CGMCC1.12409. Type of test: functional.
The test system of test [6] is Staphylococcus aureus. Kind of test: Antibacterial activity against methicillin-resistant Staphylococcus aureus ATCC 33591. Type of test: functional.
Test [7] has as its system Staphylococcus aureus. Kind of test: Bactericidal activity against Staphylococcus aureus CGMCC1.8721 by CLSI based method. Format: functional.
The subject of test [8] is Staphylococcus aureus. The experiment in a line: Bactericidal activity against methicillin-resistant Staphylococcus aureus ATCC 43300 by CLSI based method. Type of test: functional.
Test [9] deals with Staphylococcus aureus. Kind of test: Bactericidal activity against methicillin-resistant Staphylococcus aureus CGMCC1.12409 by CLSI based method. Format: functional.
For test [10], the system named is Staphylococcus aureus. Kind of test: Bactericidal activity against methicillin-resistant Staphylococcus aureus ATCC 33591 by CLSI based method. Format: functional.
Test [11] has as its system Staphylococcus aureus. The experiment in a line: Antibacterial activity against methicillin-resistant Staphylococcus aureus CGMCC1.12409 infected in mouse model assessed as reduction in abscesses size at 5 mg/kg measured for 5 days. Type of test: functional, organism-based. As to conditions: time 5.0 day.
The test system of test [12] is Staphylococcus aureus. The experiment in a line: Antibacterial activity against methicillin-resistant Staphylococcus aureus CGMCC1.12409 infected in mouse model assessed as reduction in bacterial clones at 5 mg/kg measured for 5 days. Format: functional, organism-based. As to conditions: time 5.0 day.
The subject of test [13] is Staphylococcus aureus. The experiment in a line: Antibacterial activity against methicillin-resistant Staphylococcus aureus CGMCC1.12409 infected in mouse model assessed as reduction in bacterial load at infection site at 5 mg/kg measured for 5 days relative to control. Type of test: functional. Further details: scale not given: the % may be the effect or the level left. As to conditions: time 5 day.

The test system of test [14] is Staphylococcus aureus. The experiment in a line: Antibacterial activity against methicillin-resistant Staphylococcus aureus CGMCC1.12409 infected in mouse model assessed as reduction in neutrophils in skin tissues at 5 mg/kg measured for 5 days by H and E staining based analysis. Type of test: functional, organism-based. As to conditions: time 5.0 day.
Test [15] has as its system Staphylococcus aureus. The experiment in a line: Antibacterial activity against methicillin-resistant Staphylococcus aureus CGMCC1.12409 infected in mouse model assessed as reduction in inflammation in skin tissues at 5 mg/kg measured for 5 days by H and E staining based analysis. As to conditions: time 5.0 day. Type of test: functional, organism-based.

Active and inactive are the calls of the source.

Turning to `CCCCCCCCCC(=O)N[C@@H](Cc1c[nH]c2ccccc12)C(=O)N[C@@H](CC(N)=O)C(=O)N[C@@H](CC(=O)O)C(=O)N[C@@H]1C(=O)NCC(=O)N[C@@H](CCCN)C(=O)N[C@@H](CC(=O)O)C(=O)N[C@H](C)C(=O)N[C@@H](CC(=O)O)C(=O)NCC(=O)N[C@H](CO)C(=O)N[C@@H]([C@@H](C)CC(=O)O)C(=O)N[C@@H](CC(=O)c2ccccc2N)C(=O)O[C@@H]1C`, the result in the test on Staphylococcus aureus [1] was inactive.
For `CCn1cc(C(=O)O)c(=O)c2cc(F)c(N3CCNCC3)cc21` [NORFLOXACIN], the “fold change (FC)” value with Staphylococcus aureus [2] worked out at 64. Moreover, the outcome in the test on Staphylococcus aureus [1] was Active.
What is called MIC is the smallest concentration in the dilution series that meets the test's criterion for growth inhibition. By MBC is commonly meant the smallest concentration meeting the test's criterion for killing. As for `COc1ccc2[nH]c3c(CC[C@H](C)[C@H]4CC[C@H]5[C@@H]6[C@H](O)C[C@@H]7C[C@H](O)CC[C@]7(C)[C@H]6C[C@H](O)[C@]45C)[n+](Cc4ccc(C)cc4)ccc3c2c1.[Br-]`, the MIC against Staphylococcus aureus [3] was 0.5 µg/mL; with Staphylococcus aureus [4] it was 1 µg/mL; in the test on Staphylococcus aureus [5], 4 µg/mL; with Staphylococcus aureus [6], 4 µg/mL. Further, the MBC with Staphylococcus aureus [7] amounted to 1 µg/mL; against Staphylococcus aureus [8], 2 µg/mL; against Staphylococcus aureus [9] it was 8 µg/mL; in the test with Staphylococcus aureus [10] it was 8 µg/mL.
`CO[C@H]1/C=C/O[C@@]2(C)Oc3c(C)c(O)c4c(O)c(c(/C=N/N5CCN(C)CC5)c(O)c4c3C2=O)NC(=O)/C(C)=C\C=C\[C@H](C)[C@H](O)[C@@H](C)[C@@H](O)[C@@H](C)[C@H](OC(C)=O)[C@@H]1C`: the outcome in the test on Staphylococcus aureus [1] was Active.
For `COc1ccc2[nH]c3c(CC[C@H](C)[C@H]4CC[C@H]5[C@@H]6[C@H](O)C[C@@H]7C[C@H](O)CC[C@]7(C)[C@H]6C[C@H](O)[C@]45C)[n+](Cc4ccc(Br)cc4)ccc3c2c1.[Br-]`, the MIC was found to be 1 µg/mL with Staphylococcus aureus [3], 2 µg/mL with Staphylococcus aureus [4], 2 µg/mL in the test on Staphylococcus aureus [5] and 2 µg/mL in the test on Staphylococcus aureus [6]. Also, the MBC in the test with Staphylococcus aureus [7] is 2 µg/mL; against Staphylococcus aureus [8], 2 µg/mL; with Staphylococcus aureus [9] it was 4 µg/mL; in the test with Staphylococcus aureus [10], 4 µg/mL.
With `COc1ccc2[nH]c3c(CC[C@H](C)[C@H]4CC[C@H]5[C@@H]6[C@H](O)C[C@@H]7C[C@H](O)CC[C@]7(C)[C@H]6C[C@H](O)[C@]45C)[n+](Cc4cccc(F)c4)ccc3c2c1.[Br-]`, the MIC against Staphylococcus aureus [3] amounted to 1 µg/mL; against Staphylococcus aureus [4], 1 µg/mL; in the test with Staphylococcus aureus [5], 2 µg/mL; against Staphylococcus aureus [6] it was 2 µg/mL. Besides, the MBC against Staphylococcus aureus [7] is 2 µg/mL; in the test with Staphylococcus aureus [8], 2 µg/mL; against Staphylococcus aureus [9], 4 µg/mL; in the test on Staphylococcus aureus [10], 2 µg/mL.
On to `COc1cccc(C[n+]2ccc3c([nH]c4ccc(OC)cc43)c2CC[C@H](C)[C@H]2CC[C@H]3[C@@H]4[C@H](O)C[C@@H]5C[C@H](O)CC[C@]5(C)[C@H]4C[C@H](O)[C@]23C)c1.[Br-]`, for which the MIC against Staphylococcus aureus [3] was 1 µg/mL; in the test with Staphylococcus aureus [4] it was 1 µg/mL; in the test with Staphylococcus aureus [5], 4 µg/mL; against Staphylococcus aureus [6] it was 4 µg/mL. The MBC against Staphylococcus aureus [7] amounted to 2 µg/mL; in the test with Staphylococcus aureus [8], 4 µg/mL; in the test on Staphylococcus aureus [9], 8 µg/mL; in the test on Staphylococcus aureus [10], 8 µg/mL.
As to `CN[C@H](CC(C)C)C(=O)N[C@H]1C(=O)N[C@@H](CC(N)=O)C(=O)N[C@H]2C(=O)N[C@H]3C(=O)N[C@H](C(=O)N[C@H](C(=O)O)c4cc(O)cc(O)c4-c4cc3ccc4O)[C@H](O)c3ccc(c(Cl)c3)Oc3cc2cc(c3O[C@@H]2O[C@H](CO)[C@@H](O)[C@H](O)[C@H]2O[C@H]2C[C@](C)(N)[C@H](O)[C@H](C)O2)Oc2ccc(cc2Cl)[C@H]1O` [VANCOMYCIN], the result with Staphylococcus aureus [1], in the test on Staphylococcus aureus [11], in the test on Staphylococcus aureus [12], in the test with Staphylococcus aureus [14] and with Staphylococcus aureus [15] was Active. In addition, the Activity in the test with Staphylococcus aureus [13] is on record as 92.98%.
Regarding `CCCC[n+]1ccc2c([nH]c3ccc(OC)cc32)c1CC[C@H](C)[C@H]1CC[C@H]2[C@@H]3[C@H](O)C[C@@H]4C[C@H](O)CC[C@]4(C)[C@H]3CC[C@]12C.[Br-]`, the MIC against Staphylococcus aureus [3] turned out to be 1 µg/mL; against Staphylococcus aureus [4], 4 µg/mL; against Staphylococcus aureus [5], 4 µg/mL; against Staphylococcus aureus [6], 4 µg/mL. Further, the MBC is 2 µg/mL in the test on Staphylococcus aureus [7], 8 µg/mL against Staphylococcus aureus [8], 8 µg/mL in the test with Staphylococcus aureus [9] and 16 µg/mL against Staphylococcus aureus [10].
On to `CNC(C)[C@@H]1CC[C@@H](N)[C@@H](O[C@H]2[C@H](O)[C@@H](O[C@H]3OC[C@](C)(O)[C@H](NC)[C@H]3O)[C@H](N)C[C@@H]2N)O1.CN[C@@H]1[C@@H](O)[C@@H](O[C@@H]2[C@@H](O)[C@H](O[C@H]3O[C@H](C(C)N)CC[C@H]3N)[C@@H](N)C[C@H]2N)OC[C@]1(C)O.CN[C@@H]1[C@@H](O)[C@@H](O[C@@H]2[C@@H](O)[C@H](O[C@H]3O[C@H](CN)CC[C@H]3N)[C@@H](N)C[C@H]2N)OC[C@]1(C)O` (stereo partly specified), for which the result in the test with Staphylococcus aureus [1] was Active.
